The source made the active and inactive calls. The rule behind the calls is not given here.
Tests used:
[1] = system: MDA-MB-468; experiment: Effect on STAT3 protein level in human MDA-MB-468 cells after 24 hrs by Western blot analysis; type: functional, cell-based
[2] = biological target: Signal transducer and activator of transcription 3 (Homo sapiens) (UniProt P40763); experiment: Inhibition of STAT3 expressed in human HeLa cells after 24 hrs by renilla dual-luciferase reporter gene assay; type: cell-based
Signal transducer and activator of transcription 3 (Homo sapiens), sequence (P40763 whole entry): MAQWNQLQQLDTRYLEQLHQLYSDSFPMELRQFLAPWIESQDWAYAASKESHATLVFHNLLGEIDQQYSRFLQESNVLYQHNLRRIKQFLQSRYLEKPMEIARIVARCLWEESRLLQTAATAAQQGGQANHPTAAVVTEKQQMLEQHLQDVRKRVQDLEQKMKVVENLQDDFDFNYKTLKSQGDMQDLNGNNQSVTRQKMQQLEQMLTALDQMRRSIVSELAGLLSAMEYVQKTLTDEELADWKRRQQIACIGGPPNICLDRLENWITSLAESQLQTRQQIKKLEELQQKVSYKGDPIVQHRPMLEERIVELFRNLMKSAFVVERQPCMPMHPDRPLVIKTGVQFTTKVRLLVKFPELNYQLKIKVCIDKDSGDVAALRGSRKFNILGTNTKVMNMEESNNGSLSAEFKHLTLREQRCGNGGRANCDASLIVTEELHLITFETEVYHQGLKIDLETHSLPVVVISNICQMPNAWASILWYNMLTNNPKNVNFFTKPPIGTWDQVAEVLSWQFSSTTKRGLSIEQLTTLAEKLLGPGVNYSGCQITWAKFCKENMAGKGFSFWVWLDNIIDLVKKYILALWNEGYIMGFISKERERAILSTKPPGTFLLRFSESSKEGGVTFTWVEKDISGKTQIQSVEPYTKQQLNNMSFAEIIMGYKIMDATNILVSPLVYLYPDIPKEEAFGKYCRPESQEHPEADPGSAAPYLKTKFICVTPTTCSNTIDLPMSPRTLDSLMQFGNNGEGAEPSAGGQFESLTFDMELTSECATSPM

[3] = system: MDA-MB-468; experiment: Cytotoxicity against human MDA-MB-468 cells assessed as cell viability after 24 hrs by WST1 assay; type: functional, cell-based
[4] = system: DU-145; experiment: Cytotoxicity against human DU145 cells assessed as cell viability after 24 hrs by WST1 assay; type: functional, cell-based
[5] = system: MCF7; experiment: Cytotoxicity against human MCF7 cells assessed as cell viability at 10 to 500 nM after 24 hrs by WST1 assay; type: functional, cell-based
[6] = system: HCT-116; experiment: Cytotoxicity against human HCT116 cells assessed as cell viability at 10 to 500 nM after 24 hrs by WST1 assay; type: functional, cell-based
[7] = biological target: Signal transducer and activator of transcription 3 (Homo sapiens) (UniProt P40763); experiment: Inhibition of STAT3 phosphorylation at Tyr705 in human MDA-MB-468 cells after 24 hrs by Western blot analysis; type: cell-based
[8] = biological target: Signal transducer and activator of transcription 3 (Homo sapiens) (UniProt P40763); experiment: Suppression of STAT3 mediated Mcl-1 expression in human MDA-MB-468 cells assessed as complete inhibition at 200 nM by immunoblotting assay; type: cell-based
[9] = biological target: Signal transducer and activator of transcription 3 (Homo sapiens) (UniProt P40763); experiment: Suppression of STAT3 mediated Bcl-XL expression in human MDA-MB-468 cells assessed as complete inhibition at 200 nM by immunoblotting assay; type: cell-based
[10] = biological target: Signal transducer and activator of transcription 3 (Homo sapiens) (UniProt P40763); experiment: Inhibition of translocation of STAT3 into nucleus in human MDA-MB-468 cells at 200 nM after 24 hrs […] by immunoblotting method; type: cell-based
[11] = biological target: Signal transducer and activator of transcription 3 (Homo sapiens) (UniProt P40763); experiment: Suppression of STAT3 mediated cyclinD1 expression in human MDA-MB-468 cells at G0/G1 phase by immunoblotting assay; type: cell-based
[12] = system: MDA-MB-468; experiment: Induction apoptosis in human MDA-MB-468 cells assessed as procaspase-3-mediated PARP cleavage after 24 hrs by Western blotting method; type: functional, cell-based
[13] = system: MDA-MB-468; experiment: Cell cycle arrest in human MDA-MB-468 cells assessed as accumulation at G0/G1 phase at 50 nM after 24 hrs using propidium iodide staining by FACS flow cytometry (reference value: 49.13%); type: functional
[14] = system: MDA-MB-468; experiment: Cell cycle arrest in human MDA-MB-468 cells assessed as accumulation at S phase at 50 nM after 24 hrs using propidium iodide staining by FACS flow cytometry (reference value: 12.46%); type: functional
[15] = system: MDA-MB-468; experiment: Cell cycle arrest in human MDA-MB-468 cells assessed as accumulation at G2/M phase at 50 nM after 24 hrs using propidium iodide staining by FACS flow cytometry (reference value: 31.39%); type: functional
[16] = system: MDA-MB-468; experiment: Cell cycle arrest in human MDA-MB-468 cells assessed as accumulation at subG1 phase at 50 nM after 24 hrs using propidium iodide staining by FACS flow cytometry (reference value: 7.01%); type: functional
[17] = system: MDA-MB-468; experiment: Cell cycle arrest in human MDA-MB-468 cells assessed as accumulation at G0/G1 phase at 200 nM after 24 hrs using propidium iodide staining by FACS flow cytometry (reference value: 49.13%); type: functional
[18] = system: MDA-MB-468; experiment: Cell cycle arrest in human MDA-MB-468 cells assessed as accumulation at S phase at 200 nM after 24 hrs using propidium iodide staining by FACS flow cytometry (reference value: 12.46%); type: functional
[19] = system: MDA-MB-468; experiment: Cell cycle arrest in human MDA-MB-468 cells assessed as accumulation at G2/M phase at 200 nM after 24 hrs using propidium iodide staining by FACS flow cytometry (reference value: 31.39%); type: functional
[20] = system: MDA-MB-468; experiment: Cell cycle arrest in human MDA-MB-468 cells assessed as accumulation at subG1 phase at 200 nM after 24 hrs using propidium iodide staining by FACS flow cytometry (reference value: 7.01%); type: functional
[21] = system: MDA-MB-468; experiment: Cell cycle arrest in human MDA-MB-468 cells assessed as accumulation at G0/G1 phase at 500 nM after 24 hrs using propidium iodide staining by FACS flow cytometry (reference value: 49.13%); type: functional
[22] = system: MDA-MB-468; experiment: Cell cycle arrest in human MDA-MB-468 cells assessed as accumulation at S phase at 500 nM after 24 hrs using propidium iodide staining by FACS flow cytometry (reference value: 12.46%); type: functional
[23] = system: MDA-MB-468; experiment: Cell cycle arrest in human MDA-MB-468 cells assessed as accumulation at G2/M phase at 500 nM after 24 hrs using propidium iodide staining by FACS flow cytometry (reference value: 31.39%); type: functional
[24] = system: MDA-MB-468; experiment: Cell cycle arrest in human MDA-MB-468 cells assessed as accumulation at subG1 phase at 500 nM after 24 hrs using propidium iodide staining by FACS flow cytometry (reference value: 7.01%); type: functional
[25] = biological target: Signal transducer and activator of transcription 3 (Homo sapiens) (UniProt P40763); experiment: Inhibition of STAT3 phosphorylation at Tyr705 in human MDA-MB-468 cells at 500 nM after 24 hrs by Western blot analysis; type: cell-based
[26] = biological target: Signal transducer and activator of transcription 3 (Homo sapiens) (UniProt P40763); experiment: Inhibition of STAT3 phosphorylation at Ser727 in human MDA-MB-468 cells after 24 hrs by Western blot analysis; type: cell-based
[27] = biological target: Signal transducer and activator of transcription 3 (Homo sapiens) (UniProt P40763); experiment: Inhibition of translocation of STAT3 into nucleus in human MDA-MB-468 cells assessed as localization in cytoplasm at 200 nM after 24 hrs […] by Western blotting method; type: cell-based
[28] = biological target: Signal transducer and activator of transcription 3 (Homo sapiens) (UniProt P40763); experiment: Suppression of STAT3 mediated Mcl-1 expression in human MDA-MB-468 cells by immunoblotting assay; type: cell-based
[29] = biological target: Signal transducer and activator of transcription 3 (Homo sapiens) (UniProt P40763); experiment: Suppression of STAT3 mediated VEGF expression in human MDA-MB-468 cells by immunoblotting assay; type: cell-based
[30] = biological target: Signal transducer and activator of transcription 3 (Homo sapiens) (UniProt P40763); experiment: Suppression of STAT3 mediated cyclinD1 expression in human MDA-MB-468 cells by immunoblotting assay; type: cell-based
[31] = biological target: Signal transducer and activator of transcription 3 (Homo sapiens) (UniProt P40763); experiment: Suppression of STAT3 mediated Bcl-XL expression in human MDA-MB-468 cells by immunoblotting assay; type: cell-based
[32] = biological target: Signal transducer and activator of transcription 3 (Homo sapiens) (UniProt P40763); experiment: Suppression of STAT3 mediated survivin expression in human MDA-MB-468 cells by immunoblotting assay; type: cell-based

CC[C@@]1(O)CCc2c(O)c3c(c(O)c2[C@H]1O[C@H]1C[C@H](N(C)C)[C@@H](O[C@H]2C[C@H](O)[C@@H](O[C@H]4CC[C@H](O)[C@H](C)O4)[C@H](C)O2)[C@H](C)O1)C(=O)c1cccc(O)c1C3=O was tested, and the Activity [1] was “inactive”, the inhibition [2] was “inactive” and the Activity [3] was “inactive”. For the same molecule, the Activity [4] was “inactive”, the Activity [5] was “inactive” and the Activity [6] was “inactive”. The inhibition [7] was “inactive”.

In the case of CC[C@@]1(O)C[C@H](O[C@H]2C[C@H](N(C)C)[C@@H](O[C@H]3C[C@H](O)[C@@H](O[C@H]4CC[C@H](O)[C@H](C)O4)[C@H](C)O3)[C@H](C)O2)c2c(O)c3c(c(O)c2[C@H]1O[C@H]1C[C@H](N(C)C)[C@@H](O[C@H]2CC[C@H](O[C@H]4CC[C@H](O)[C@H](C)O4)[C@H](C)O2)[C@H](C)O1)C(=O)c1cccc(O)c1C3=O [COSMOMYCIN C], the Activity [8] is reported as “Active”, the Activity [9] is reported as “Active” and the Activity [10] is reported as “Active”. For the same molecule, the Activity [11] was “Active”, the Activity [12] was “Active” and the Activity [1] was “inactive”. For the same molecule, the Activity [13] was 54.64%, the Activity [14] was 10.52% and the Activity [15] was 26.91%. For the same molecule, the Activity [16] was 7.93%, the Activity [17] was 59.53% and the Activity [18] was 8.82%. The Activity [19] was 22.18%, the Activity [20] was 9.47% and the Activity [21] was 49.9%. The Activity [22] was 8.78%, the Activity [23] was 15.81% and the Activity [24] was 25.52%. The inhibition [2] was “Dose-dependent effect”, the Activity [3] was “Dose-dependent effect” and the IC50 ([3]; MDA-MB-468, 24 h) was 210 nM. The Activity [4] was “Dose-dependent effect”, the Activity [5] was “inactive” and the Activity [6] was “inactive”. For the same molecule, the inhibition [7] was “Dose-dependent effect”, the inhibition [25] was “Active” and the inhibition [26] was “inactive”. For the same molecule, the inhibition [27] was “Active”, the Activity [28] was “Dose-dependent effect” and the Activity [29] was “Dose-dependent effect”. For the same molecule, the Activity [30] was “Dose-dependent effect”, the Activity [31] was “Dose-dependent effect” and the Activity [32] was “Dose-dependent effect”.

With CO[C@H](C(=O)[C@@H](O)[C@@H](C)O)[C@@H]1Cc2cc3cc(O[C@H]4C[C@@H](O[C@@H]5C[C@@H](O)[C@H](O)[C@@H](C)O5)[C@H](O)[C@@H](C)O4)c(C)c(O)c3c(O)c2C(=O)[C@H]1O[C@H]1C[C@@H](O[C@@H]2C[C@@H](O)[C@@H](O[C@@H]3C[C@](C)(O)[C@H](O)[C@@H](C)O3)[C@@H](C)O2)[C@H](O)[C@@H](C)O1 the inhibition [2] was “inactive”.

From ChEMBL document CHEMBL2150876, “Cosmomycin C inhibits signal transducer and activator of transcription 3 (STAT3) pathways in MDA-MB-468 breast cancer cell” (Bioorg Med Chem, 2011)
